Results on 6 molecules are retold here after PMC8016166, “Identification of a Potent and Selective 5-HT1A Receptor Agonist with In Vitro and In Vivo Antinociceptive Activity” (ACS Chemical Neuroscience, 2020).

The target of one experiment is T1, human 5-HT1AR (Homo sapiens, UniProt P08908).
T1 construct: expressed in transfected cells
T1 sequence (P08908 1-422): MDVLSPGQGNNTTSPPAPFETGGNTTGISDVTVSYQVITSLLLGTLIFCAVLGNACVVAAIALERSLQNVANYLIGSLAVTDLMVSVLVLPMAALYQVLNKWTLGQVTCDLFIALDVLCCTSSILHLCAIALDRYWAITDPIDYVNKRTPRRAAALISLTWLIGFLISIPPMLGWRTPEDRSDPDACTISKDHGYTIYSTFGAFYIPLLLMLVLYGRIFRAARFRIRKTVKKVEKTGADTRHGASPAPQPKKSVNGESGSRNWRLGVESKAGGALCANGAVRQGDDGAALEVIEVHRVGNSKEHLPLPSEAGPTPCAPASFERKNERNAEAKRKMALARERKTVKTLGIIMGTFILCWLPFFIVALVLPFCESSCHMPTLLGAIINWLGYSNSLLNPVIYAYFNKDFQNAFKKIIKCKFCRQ
The experiment is described as follows: Radioligand binding at 5-HT1A in transfected HEK293 cells. To be noted: for 5-HT1A pKi ± SEM / Ki: HEK293 cells transfected with human 5-HT1AR, [3H]-8-OH-DPAT, at least two independent experiments; for Ki: read-out: 5-HT1A pKi ± SEM (converted). As for the experimental part:
HEK293 cells with stable expression of human 5-HT1A, 5-HT6, and 5-HT7b (prepared with the use of Lipofectamine 2000) were grown in Dulbecco’s Modified Eagle Medium (DMEM) containing 10% dialyzed fetal bovine serum (FBS) and 500 μg/mL G418 sulfate. Liver hepatocellular carcinoma Hep-G2 cells were cultured in DMEM enriched by 10% FBS, 2 mM L-glutamine, 100 IU/mL penicillin, and 50 μg/mL streptomycin (all from Sigma-Aldrich Corporation, a division of Merck KGaA, Darmstadt, Germany). Cell lines were maintained at 37 °C in a humidified atmosphere with 5% CO2. For membrane preparation, the cells were subcultured in 150 cm^2 flasks, grown to 90% confluence, washed twice with prewarmed to 37 °C phosphate buffered saline (PBS), and pelleted by centrifugation (200g) in PBS containing 0.1 mM EDTA and 1 mM dithiothreitol. Prior to membrane preparation, pellets were stored at −80 °C.
The cell pellets were thawed and homogenized in 10 volumes of assay buffer using an Ultra Turrax tissue homogenizer and centrifuged twice at 35 000g for 15 min at 4 °C, with incubation for 15 min at 37 °C in between. The composition of the assay buffers was as follows: for 5-HT1AR: 50 mM Tris HCl, 0.1 mM EDTA, 4 mM MgCl2, 10 μM pargyline, and 0.1% ascorbate; for 5-HT6R: 50 mM Tris HCl, 0.5 mM EDTA, and 4 mM MgCl2; for 5-HT7bR: 50 mM Tris HCl, 4 mM MgCl2, 10 μM pargyline, and 0.1% ascorbate. All the assays were incubated in a total volume of 200 μL in 96-well microtiter plates for 1 h at 37 °C, except 5-HT1AR which was incubated at room temperature. The process of equilibration was terminated by rapid filtration through Unifilter plates with a 96-well cell harvester and radioactivity retained on the filters was quantified on a Microbeta plate reader (PerkinElmer, USA). […] Nonspecific binding was defined with 10 μM of 5-HT in 5-HT1AR and 5-HT7R binding experiments, where 10 μM of methiothepine was used in 5-HT6R assays. Each compound was tested in triplicate at 7 concentrations (10^–10–10^–4 M). The results were analyzed with one-way ANOVA followed by the Bonferroni’s posthoc test. The inhibition constants (pKi) were calculated from the Cheng-Prusoff equation.[46] The results were expressed as means of at least two separate experiments.

In another experiment the target is T2, 5-HT1AR (Rattus norvegicus, UniProt P19327).
T2 construct: from tissue; hippocampus per the main-text methods
T2 sequence (P19327 1-422): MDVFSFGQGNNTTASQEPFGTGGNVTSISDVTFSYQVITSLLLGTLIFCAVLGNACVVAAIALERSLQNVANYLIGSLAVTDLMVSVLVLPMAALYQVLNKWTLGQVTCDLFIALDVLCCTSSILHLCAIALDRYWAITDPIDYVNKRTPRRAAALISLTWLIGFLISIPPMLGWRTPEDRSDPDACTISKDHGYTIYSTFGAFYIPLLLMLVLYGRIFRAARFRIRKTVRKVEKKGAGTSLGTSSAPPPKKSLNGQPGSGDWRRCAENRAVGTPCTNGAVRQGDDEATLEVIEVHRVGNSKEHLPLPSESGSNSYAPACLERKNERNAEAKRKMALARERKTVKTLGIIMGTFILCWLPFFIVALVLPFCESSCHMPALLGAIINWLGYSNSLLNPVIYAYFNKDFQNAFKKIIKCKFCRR
Put plainly: Effect of WAY100635 on compound-stimulated [35S]GTPγS binding (Tables SI-1, SI-2). The conditions noted are these: for Emax: basal set to 100%; for EC50: rat frontal cortex homogenates, read-out: pEC50 ± SEM, compound alone (converted); for shift ratio: with WAY100635 10^-7 M vs agonist alone. It is filed as biochemical. As for the experimental part:
The [^35S]GTPγS assay was performed according to the method described previously.[49] […] Nonspecific binding was determined with 100 μM of unlabeled GTPγS. The reaction mixture was incubated for 90 min at 36 °C in a volume of 250 μL. […] Next, 96-well Unifilter Plates (PerkinElmer, USA) were presoaked for 1 h with 50 mM Tris-HCl (pH = 7.4) before harvesting. The reaction was terminated by vacuum filtration onto filter plates with the Filter Mate Harvester (PerkinElmer, USA). The samples were then rapidly washed with 2 mL of 50 mM Tris-HCl (pH = 7.4) buffer. The filter plates were dried for 2 h at 50 °C. After drying, 45 μL of EcoScint-20 scintillant (PerkinElmer, USA) was added to every well. The radioactivity was counted in a Trilux MicroBeta^2 counter (PerkinElmer, USA). The data were analyzed with GraphPad Prism 5.0 software (GraphPad Software, San Diego California USA, www.graphpad.com). To determine whether compound-stimulated [^35S]GTPγS binding involved 5-HT1A receptors, two protocols were used. […]
WAY).) Results were expressed as means ± SEM. Curves were fitted with a one-site sigmoidal dose-response equation […]
calculated as the ratio of pEC50 in the presence of WAY100635 divided by the pEC50 of agonist alone. Basal 5-HT1AR activation was set to 100%. Results were analyzed with one-way ANOVA followed by the Bonferroni’s post-hoc test. […]
WAY100635 (10^-10 M - 10^-5 M, WAY). Results were expressed as means ± SEM. Curves were fitted with a one-site sigmoidal dose-response equation and Emax (%) of the EC80 agonist concentration alone and in the presence of WAY100635 were determined from 2 independent experiments. Basal (no ligand added) [35S]GTPγS binding was set to 100%. Results were analyzed with one-way ANOVA followed by the Bonferroni’s post-hoc test.
(GTPγS resists hydrolysis and so accumulates on activated G proteins.)

[1] abbreviates: Table SI-1, read-out: Emax (%) ± SEM, compound alone.
Where [2] appears, read: Table SI-2, read-out: Emax (%) ± SEM of EC80 agonist concentration alone.

Like-named read-outs stand apart in the source and are kept apart here.

Regarding `c1ccc(C2(c3ccccc3)OC[C@H](CNCCOc3ccccc3-c3ccncc3)O2)cc1` [(S)-1, N-[(2,2-Diphenyl-1,3-dioxolan-4-yl)methyl]-2-[2-(pyridin-4-yl)phenoxy]ethan-1-ammonium hydrogenoxalate], the “5-HT1A pKi ± SEM” value on human 5-HT1AR is on record as 8.03 ± 0.10. Also, on 5-HT1AR (setting [1]), the Emax is 138 ± 2.9%. For the same molecule, on 5-HT1AR (Table SI-1), the EC50 is 15.8 nM and the shift ratio is 39.8. Also, the Emax at 5-HT1AR (setting [2]) stood at 134 ± 24.5%.
With `Cn1cncc1-c1ccccc1OCCNC[C@@H]1COC(c2ccccc2)(c2ccccc2)O1` [(R)-2, N-((2,2-Diphenyl-1,3-dioxolan-4-yl)methyl)-2-(2-(1-methyl-1H-imidazol-5-yl)phenoxy)ethan-1-ammonium hydrogenoxalate], the Ki on human 5-HT1AR is 12 nM. The Emax at 5-HT1AR (setting [1]) came to 143 ± 3.6%. In addition, on 5-HT1AR (Table SI-1), the EC50 is 63.1 nM and the shift ratio came out at 19.9. Besides, the Emax at 5-HT1AR (setting [2]) amounted to 140 ± 18.8%.
The like results for `Cn1cncc1-c1ccccc1OCCNCC1COC(c2ccccc2)(c2ccccc2)O1` (racemic) [rac-2, N-((2,2-diphenyl-1,3-dioxolan-4-yl)methyl)-2-(2-(1-methyl-1H-imidazol-5-yl)phenoxy)ethan-1-ammonium hydrogenoxalate] were, in that order, 7.41 nM, 184 ± 2.7%, 39.8 nM, 31.6 and 158 ± 24.6%.
As for `Cn1cncc1-c1ccccc1OCCNC[C@H]1COC(c2ccccc2)(c2ccccc2)O1` [(S)-2, N-((2,2-Diphenyl-1,3-dioxolan-4-yl)methyl)-2-(2-(1-methyl-1H-imidazol-5-yl)phenoxy)ethan-1-ammonium hydrogenoxalate], at human 5-HT1AR, the “binding affinity at 5-HT1AR, (S)-2 vs (R)-2” value is 3 fold and the Ki was 4.07 nM. Besides, on 5-HT1AR (setting [1]), the Emax was 175 ± 2.7%. For the same molecule, on 5-HT1AR (Table SI-1), the EC50 was 25.1 nM and the shift ratio is listed as 25.1. Also, at 5-HT1AR (setting [2]), the Emax is 156 ± 21.7%.
Regarding `c1ccc(C2(c3ccccc3)OCC(CNCCOc3ccccc3-c3ccncc3)O2)cc1` (racemic) [rac-1, N-[(2,2-diphenyl-1,3-dioxolan-4-yl)methyl]-2-[2-(pyridin-4-yl)phenoxy]ethan-1-ammonium hydrogenoxalate], on human 5-HT1AR, the Ki was 9.12 nM. At 5-HT1AR (setting [1]), the Emax is 151 ± 4.2%. Besides, at 5-HT1AR (Table SI-1), the EC50 was 100 nM and the shift ratio is 6.3. At 5-HT1AR (setting [2]), the Emax was 138 ± 28.4%.
Consider `c1ccc(C2(c3ccccc3)OC[C@@H](CNCCOc3ccccc3-c3ccncc3)O2)cc1` [(R)-1, N-[(2,2-Diphenyl-1,3-dioxolan-4-yl)methyl]-2-[2-(pyridin-4-yl)phenoxy]ethan-1-ammonium hydrogenoxalate], for which the “5-HT1A pKi ± SEM” value on human 5-HT1AR amounted to 8.35 ± 0.9. For the same molecule, on 5-HT1AR (setting [1]), the Emax amounted to 158 ± 5.9%. Besides, at 5-HT1AR (Table SI-1), the EC50 is 63.1 nM and the shift ratio is recorded as 10.0. Also, the Emax at 5-HT1AR (setting [2]) came out at 149 ± 35.1%.
